For assay [1], the target named is T1, glutathione S-transferase (GST)-fused full-length human Syk protein (Homo sapiens, UniProt P43405).
T1 construct: (GST)-fused full-length human Syk protein; GST (glutathione S-transferase); purchased Carna Biosciences
Description: Syk enzyme assay. Format: biochemical. The method, boiled down: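 Baculovirus-expressed enzyme (1.2 ng) was preincubated with compound in HEPES pH 7.0/MgCl2/DTT buffer, 2 min shaking then 13 min at room temperature. Biotin-EDPDYEWPSA-NH2 (0.4 μM final) and ATP (27 μM final) were added for 40 min at room temperature. EDTA stop, streptavidin-XL/PT66-K TR-FRET at 615/665 nm gave IC50.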

A further assay deals with THP-1 cells. Description: TNFα generation assay. Format: cell-based, human. In short, it runs like this: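 Secreted TNFα in supernatant quantified by ELISA or AlphaLISA after 7 h culture on human IgG-coated wells (10 μg/ml coating). Cells were IFN-γ-differentiated THP-1 (10 ng/ml, 2 days), exposed to compound for 30 min at room temperature before plating.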
Where [2] appears, read: Syk enzyme assay, Test Example 1, read-out: IC50 of Syk-inhibitory activity.
The mark [3] stands for this setting: Homo sapiens, THP-1, THP-1 cells, Table 22, read-out: IC50 in TNFα generation assay.

pIC50: −log10 of the molar value. Where a name gives a salt, the structure may show the parent alone. Read-outs that look alike come from different tables or passages of the source.

For the compound `NC(=O)c1cc(F)c(N[C@@H]2CCCC[C@@H]2N)nc1Nc1cccc2c1cnn2C1CC1` [Example 006-474, 6-(((1R,2S)-2-aminocyclohexyl)amino)-2-((1-cyclopropyl-1H-indazol-4-yl)amino)-5-fluoronicotinamide], the figures for the pIC50 (in assay [1] (setting [2]); in the assay on THP-1 cells (setting [3])) were over 8.00 and 6.89 to 7.19, respectively.

As for `CCCc1nn(C)c2ccc(Nc3nc(N[C@H](CC4CC4)[C@H](C)N)c(F)cc3C(N)=O)cc12` [Example 006-464, 6-(((2R,3S)-3-amino-1-cyclopropylbutan-2-yl)amino)-5-fluoro-2-((1-methyl-3-propyl-1H-indazol-5-yl)amino)nicotinamide], the pIC50 in assay [1] (setting [2]) is over 8.00; with THP-1 cells (setting [3]), 6.89 to 7.19.

Consider `COCCOc1cc(Nc2nc(N[C@H](C3CC3)[C@H](C)N)c(F)cc2C(N)=O)ccn1` [Example 006-431, 6-(((1R,2S)-2-amino-1-cyclopropylpropyl)amino)-5-fluoro-2-((2-(2-methoxyethoxy)pyridin-4-yl)amino)nicotinamide], for which the results for the pIC50 (in assay [1] (setting [2]); in the assay with THP-1 cells (setting [3])) were 7.30 to 8.00 and 6.89 to 7.19, respectively.

Regarding `CC[C@@H](Nc1nc(Nc2ccc3c(cnn3C)c2)c(C(N)=O)cc1F)[C@H](C)N` [Example 006-210, 6-(((2S,3R)-2-aminopentan-3-yl)amino)-5-fluoro-2-((1-methyl-1H-indazol-5-yl)amino)nicotinamide], the pIC50 in assay [1] (setting [2]) was over 8.00; in the assay on THP-1 cells (setting [3]) it was over 7.19.

As for `CCC[C@@H](Nc1nc(Nc2cnc3cc(OCCOC)ccc3c2)c(C(N)=O)cc1F)[C@H](C)N` [Example 006-238, 6-(((2S,3R)-2-aminohexan-3-yl)amino)-5-fluoro-2-((7-(2-methoxyethoxy)quinolin-3-yl)amino)nicotinamide], the figures for the pIC50 (in assay [1] (setting [2]); in the assay with THP-1 cells (setting [3])) were over 8.00 and over 7.19, respectively.

For the compound `NC(=O)c1cc(F)c(N[C@@H]2CCCC[C@@H]2N)nc1Nc1cccc2ncccc12` [Example 37-1, 6-((1R,2S)-2-aminocyclohexylamino)-5-fluoro-2-((quinolin-5-yl)amino)nicotinamide], the pIC50 in assay [1] (setting [2]) was over 8.00; with THP-1 cells (setting [3]), over 7.19.

Consider `CCn1ncc2cc(Nc3nc(N[C@H](c4ccc(F)cc4)[C@H](C)N)c(F)cc3C(N)=O)ccc21` [Example 006-555, 6-(((1R,2S)-2-amino-1-(4-fluorophenyl)propyl)amino)-2-((1-ethyl-1H-indazol-5-yl)amino)-5-fluoronicotinamide], for which the pIC50 in assay [1] (setting [2]) was over 8.00; in the assay with THP-1 cells (setting [3]) it was 6.89 to 7.19.

As to `Cc1cc(Nc2nc(N[C@@H]3CCCC[C@@H]3N)c(F)cc2C(N)=O)cnc1-n1cccn1` [Example 006-499, 6-(((1R,2S)-2-aminocyclohexyl)amino)-5-fluoro-2-((5-methyl-6-(1H-pyrazol-1-yl)pyridin-3-yl)amino)nicotinamide], the pIC50 in assay [1] (setting [2]) was 7.30 to 8.00; in the assay with THP-1 cells (setting [3]), 6.70 to 6.89.

On to `CCC[C@@H](Nc1nc(Nc2ccnc(-c3cccc(OC)c3)c2)c(C(N)=O)cc1F)[C@H](C)N` [Example 006-334, 6-(((2S,3R)-2-aminohexan-3-yl)amino)-5-fluoro-2-((2-(3-methoxyphenyl)pyridin-4-yl)amino)nicotinamide], for which the pIC50 in assay [1] (setting [2]) was over 8.00; with THP-1 cells (setting [3]), 6.89 to 7.19.

With `NC(=O)c1cc(F)c(N[C@@H]2CCCC[C@@H]2N)nc1Nc1ccc2c(c1)c(F)nn2C1CC1` [Example 006-475, 6-(((1R,2S)-2-aminocyclohexyl)amino)-2-((1-cyclopropyl-3-fluoro-1H-indazol-5-yl)amino)-5-fluoronicotinamide], the pIC50 in assay [1] (setting [2]) was over 8.00; in the assay on THP-1 cells (setting [3]), 6.70 to 6.89.

As for `CCC[C@@H](Nc1nc(Nc2ccnc(-c3ccco3)c2)c(C(N)=O)cc1F)[C@H](C)N` [Example 006-220, 6-(((2S,3R)-2-aminohexan-3-yl)amino)-5-fluoro-2-((2-(furan-2-yl)pyridin-4-yl)amino)nicotinamide], the pIC50 is over 8.00 in assay [1] (setting [2]) and over 7.19 with THP-1 cells (setting [3]).

For `CC[C@@H](Nc1nc(Nc2ccc3c(c2)c(C)nn3C)c(C(N)=O)cc1F)[C@H](C)N` [Example 006-524, 6-(((2S,3R)-2-aminopentan-3-yl)amino)-2-((1,3-dimethyl-1H-indazol-5-yl)amino)-5-fluoronicotinamide], the pIC50 was over 8.00 in assay [1] (setting [2]) and over 7.19 in the assay with THP-1 cells (setting [3]).

In the case of `CCn1nc(C2CC2)c2cc(Nc3nc(N[C@H](CC(C)C)[C@H](C)N)c(F)cc3C(N)=O)ccc21` [Example 006-550, 6-(((2S,3R)-2-amino-5-methylhexan-3-yl)amino)-2-((3-cyclopropyl-1-ethyl-1H-indazol-5-yl)amino)-5-fluoronicotinamide], the pIC50 in assay [1] (setting [2]) was over 8.00; in the assay on THP-1 cells (setting [3]) it was 6.70 to 6.89.

With `Cn1ccc2cc(Nc3nc(N[C@@H]4CCCC[C@@H]4N)c(F)cc3C(N)=O)cnc21` [Example 004-012], the pIC50 in assay [1] (setting [2]) was over 8.00; in the assay with THP-1 cells (setting [3]) it was over 7.19.

As to `CC[C@@H](Nc1nc(Nc2cncc3ccccc23)c(C(N)=O)cc1F)[C@H](C)N` [Example 006-262, 6-(((2S,3R)-2-aminopentan-3-yl)amino)-5-fluoro-2-((isoquinolin-4-yl)amino)nicotinamide], the pIC50 in assay [1] (setting [2]) is over 8.00; in the assay on THP-1 cells (setting [3]) it was over 7.19.

For `CCOCCOCCn1ncc2cc(Nc3nc(N[C@@H]4CCCC[C@@H]4N)c(F)cc3C(N)=O)ccc21` (relative stereo) [Example 004-092, 6-(cis-2-aminocyclohexylamino)-2-((1-(2-(2-ethoxyethoxy)ethyl)-1H-indazol-5-yl)amino)-5-fluoronicotinamide], the pIC50 in assay [1] (setting [2]) was over 8.00; in the assay with THP-1 cells (setting [3]), 6.89 to 7.19.

Regarding `CC[C@@H](Nc1nc(Nc2ccc3c(c2)c(C2CC2)nn3C)c(C(N)=O)cc1F)[C@H](C)N` [Example 006-547, 6-(((2S,3R)-2-aminopentan-3-yl)amino)-2-((3-cyclopropyl-1-methyl-1H-indazol-5-yl)amino)-5-fluoronicotinamide], the pIC50 is over 8.00 in assay [1] (setting [2]) and 6.89 to 7.19 in the assay with THP-1 cells (setting [3]).

For the compound `NC(=O)c1cc(Br)c(NC2CCCCC2N)nc1Nc1cnc2ccccc2c1` (stereo not shown) [Example 035-002], the values for the pIC50 (in assay [1] (setting [2]); with THP-1 cells (setting [3])) were over 8.00 and 6.89 to 7.19, respectively.

On to `NC(=O)c1cc(F)c(N[C@@H]2CCCC[C@@H]2N)nc1Nc1cncc(N2CCCC2)c1` (relative stereo) [Example 004-049], for which the pIC50 was over 8.00 in assay [1] (setting [2]) and 6.70 to 6.89 with THP-1 cells (setting [3]).

With `COCCOc1cc(Nc2nc(NC3CCCCC3N)c(F)cc2C(N)=O)ccn1` (stereo not shown) [Example 002-066], the pIC50 was over 8.00 in assay [1] (setting [2]) and 6.70 to 6.89 in the assay with THP-1 cells (setting [3]).

As for `COCCn1ccc2c(Nc3nc(N[C@@H]4CCCC[C@@H]4N)c(F)cc3C(N)=O)ccnc21` [Example 004-035], the pIC50 in assay [1] (setting [2]) is over 8.00; in the assay on THP-1 cells (setting [3]), 6.70 to 6.89.

Turning to `NC(=O)c1cc(F)c(N[C@@H]2CCCC[C@@H]2N)nc1Nc1cccc(-n2ccnn2)c1` (relative stereo) [Example 006-122, 2-(3-(1H-1,2,3-triazol-1-yl)phenylamino)-6-((cis-2-aminocyclohexyl)amino)-5-fluoronicotinamide], the results for the pIC50 (in assay [1] (setting [2]); with THP-1 cells (setting [3])) were over 8.00 and 6.89 to 7.19, respectively.

As to `NC(=O)c1cc(F)c(N[C@@H]2CCCC[C@@H]2N)nc1Nc1cncc(-n2ccnn2)c1` [Example 004-043], the pIC50 in assay [1] (setting [2]) was 6.00 to 7.00; in the assay on THP-1 cells (setting [3]) it was 6.89 to 7.19.

On to `CN(C)c1cccc(-c2cncc(Nc3nc(N[C@@H]4CCCC[C@@H]4N)c(F)cc3C(N)=O)c2)c1` (relative stereo) [Example 004-227, 6-(cis-2-aminocyclohexylamino)-2-((5-(3-(dimethylamino)phenyl)pyridin-3-yl)amino)-5-fluoronicotinamide], for which the pIC50 is over 8.00 in assay [1] (setting [2]) and 6.70 to 6.89 in the assay on THP-1 cells (setting [3]).

As to `CC(C)C[C@H](CN)Nc1nc(Nc2cncc(-c3ccccc3F)c2)c(C(N)=O)cc1F` [Example 006-316, (R)-6-((1-amino-4-methylpentan-2-yl)amino)-5-fluoro-2-((5-(2-fluorophenyl)pyridin-3-yl)amino)nicotinamide], the pIC50 is 7.30 to 8.00 in assay [1] (setting [2]) and 6.70 to 6.89 in the assay with THP-1 cells (setting [3]).

For the compound `NC(=O)c1cc(F)c(N[C@@H]2CCCC[C@@H]2N)nc1Nc1cncc2ccccc12` (single isomer, unassigned) [Example 9, 6-(cis-2-aminocyclohexylamino)-5-fluoro-2-(isoquinolin-4-ylamino)nicotinamide•hydrochloride], the pIC50 in assay [1] (read-out: Syk-inhibitory activity (IC50)) is at least 6.00; in the assay with THP-1 cells (Homo sapiens, THP-1, 7 h, IFN-γ-differentiated THP-1 cells on human IgG-coated plate, cultured 7 hours, read-out: TNFα generation inhibitory activity (IC50)), at least 6.70.

With `COCCn1nc(C)c2cc(Nc3nc(N[C@H](CC4CC4)[C@H](C)N)c(F)cc3C(N)=O)ccc21` [Example 006-444, 6-(((2R,3S)-3-amino-1-cyclopropylbutan-2-yl)amino)-5-fluoro-2-((1-(2-methoxyethyl)-3-methyl-1H-indazol-5-yl)amino)nicotinamide], the pIC50 was 7.00 to 7.30 in assay [1] (setting [2]) and 6.89 to 7.19 in the assay on THP-1 cells (setting [3]).

For the compound `NC(=O)c1cc(F)c(N[C@@H]2CCCC[C@@H]2N)nc1Nc1cncc(-c2cccc(N)c2)c1` [Example 043-000], the pIC50 is over 8.00 in assay [1] (setting [2]) and 6.89 to 7.19 in the assay on THP-1 cells (THP-1 cells, Table 22, read-out: IC50 in TNFα generation assay).

Turning to `C=C(C)C[C@@H](Nc1nc(Nc2ccc3ncccc3c2)c(C(N)=O)cc1F)[C@H](C)N` [Example 006-396, 6-(((2S,3R)-2-amino-5-methylhex-5-en-3-yl)amino)-5-fluoro-2-(quinolin-6-ylamino)nicotinamide], the pIC50 is over 8.00 in assay [1] (setting [2]) and 6.89 to 7.19 with THP-1 cells (setting [3]).
